Source: the supplement of paper PMC10307832

What was measured:
Assay in all cases: relative viability (nuclei count vs DMSO), 5 days (fraction); higher = more cells survive
[1] = compound: COc1nc(N)nc2c1ncn2[C@@H]1O[C@H](CO)[C@@H](O)[C@@H]1O [Nelarabine] + Nc1nc2[nH]cc(CCc3ccc(C(=O)N[C@@H](CCC(=O)O)C(=O)O)cc3)c2c(=O)[nH]1 [Pemetrexed] (partner 0.2 µM)
In short: (§1)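 Medians of duplicate plates are given as relative viability. That measure is the nuclei count in treated wells divided by the count in vehicle wells. Counts were taken on 4× images of lung cancer cell lines in 1536-well plates, 5 days after pin-tool dosing the day after seeding with one drug alone or a fixed anchor-drug dose plus five library-drug doses (not always all listed) in √10 steps.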

[2] = compound: C=CCn1c(=O)c2cnc(Nc3ccc(N4CCN(C)CC4)cc3)nc2n1-c1cccc(C(C)(C)O)n1 [Adavosertib] + Nc1ncn([C@H]2C[C@H](O)[C@@H](CO)O2)c(=O)n1 [Decitabine] (partner 2 µM)
In short: as §1

[3] = compound: C=CCn1c(=O)c2cnc(Nc3ccc(N4CCN(C)CC4)cc3)nc2n1-c1cccc(C(C)(C)O)n1 [Adavosertib] + Cc1nc(NC(=O)N2CCC[C@H]2C(N)=O)sc1-c1ccnc(C(C)(C)C(F)(F)F)c1 [Alpelisib] (partner 2 µM)
In short: as §1

[4] = compound: C=CCn1c(=O)c2cnc(Nc3ccc(N4CCN(C)CC4)cc3)nc2n1-c1cccc(C(C)(C)O)n1 [Adavosertib] + COc1cc2c(Oc3ccc(NC(=O)C4(C(=O)Nc5ccc(F)cc5)CC4)cc3F)ccnc2cc1OCCCN1CCOCC1 [Foretinib] (partner 0.25 µM)
In short: as §1

Q: Which relative viability ([1]; first compound 0.01 µM) does the source give for EMC-BAC-2 here?
A: 0.44

Q: And the relative viability ([1]; first compound 0.03162 µM)?
A: 0.456

Q: What about the relative viability ([1]; first compound 0.1 µM) of the same cell line?
A: 0.502

Q: And the relative viability ([1]; first compound 0.3162 µM)?
A: 0.52

Q: And the relative viability ([1]; first compound 1 µM)?
A: 0.508

Q: And the relative viability ([2]; first compound 0.03162 µM)?
A: 0.997

Q: And the relative viability ([2]; first compound 0.1 µM)?
A: 1.08

Q: And the relative viability ([2]; first compound 0.3162 µM)?
A: 1.04

Q: And the relative viability ([3]; first compound 0.01 µM)?
A: 0.736

Q: And the relative viability ([3]; first compound 0.03162 µM)?
A: 0.737

Q: And the relative viability ([3]; first compound 0.1 µM)?
A: 0.722

Q: What about the relative viability ([3]; first compound 0.3162 µM) of the same cell line?
A: 0.678

Q: And the relative viability ([4]; first compound 0.01 µM)?
A: 1.08

Q: What about the relative viability ([4]; first compound 0.03162 µM) of the same cell line?
A: 1.01

Q: And the relative viability ([4]; first compound 0.1 µM)?
A: 0.995

Q: And the relative viability ([4]; first compound 0.3162 µM)?
A: 0.949
